The text below walks through data of US20110130386A1, “DNA-PK INHIBITORS” (priority 2008, published 2011).

This test addresses Mammalian DNA-PK (Homo sapiens, UniProt P78527). Description: DNA-PK inhibition assay (ELISA of p53 Ser15 phosphorylation of GST-p53N66). It is filed as biochemical, Mammalian (isolated from HeLa cell nuclear extract). The note with it: DNA-PK from HeLa nuclear extract; mean value; read-out: mean IC50. As to the method: In order to assess the inhibitory action of the compounds against DNA-PK in vitro, the following assay was used to determine IC50 values.
To the assay mix, varying concentrations of inhibitor (in DMSO at a final concentration of 1%) were added. After 10 minutes of incubation, ATP was added to give a final concentration of […] along with a 30 mer double stranded DNA oligonucleotide (final concentraion of 0.5 ng/ml) to initiate the reaction. After 1 hour with shaking, 150 μl of phosphate buffered saline (PBS) was added to the reaction and 5 μl then transferred to a 96 well opaque white plate containing 45 μl of PBS per well where the GSTp53N66 substrate was allowed to bind to the wells for 1 hour. To detect the phosphorylation event on the serine 15 residue of p53 elicited by DNA-PK a p53 phosphoserine-15 antibody (Cell Signaling Technology) was used in a basic ELISA procedure. An anti-rabbit HRP conjugated secondary antibody (Pierce) was then employed in the ELISA before the addition of chemiluminescence reagent. (NEN Renaissance) to detect the signal as measured by chemiluminescent counting via a TopCount NXT (Packard).
The enzyme activity for each compound is then calculated using the following equation: […]
The results are discussed below as IC50 values (the concentration at which 50% of the enzyme activity is inhibited). These are determined over a range of different concentrations, normally from 10 μM down to 0.001 μM. Such IC50 values are used as comparative values to identify increased compound potencies.
(In general: In an ELISA, binding on a coated surface is turned into a signal by an enzyme label.)
For the molecule `O=c1cc(N2CCOCC2)oc2c(-c3ccc(CNCC4CCCO4)c4c3sc3ccccc34)cccc12` (centres unmarked) [4a], the IC50 (usually the concentration that inhibits the measured activity by half) worked out at 0.0312 µM.

For the molecule `CC(C)N1CCN(Cc2ccc(-c3cccc4c(=O)cc(N5CCOCC5)oc34)c3sc4ccccc4c23)CC1` [4aa], the IC50 stood at 0.00175 µM.

Regarding `O=c1cc(N2CCOCC2)oc2c(-c3ccc(CN4CCN(CCO)CC4)c4c3sc3ccccc34)cccc12` [4ab], the IC50 was found to be 0.00139 µM.

Take `CN(CC(=O)O)Cc1ccc(-c2cccc3c(=O)cc(N4CCOCC4)oc23)c2sc3ccccc3c12` [4ac]: the IC50 is 0.238 µM.

Take `O=c1cc(N2CCOCC2)oc2c(-c3ccc(CN4CCCN(CCO)CC4)c4c3sc3ccccc34)cccc12` [4ad]: the IC50 was found to be 0.00386 µM.

For the molecule `CN(C)C1CCN(Cc2ccc(-c3cccc4c(=O)cc(N5CCOCC5)oc34)c3sc4ccccc4c23)CC1` [4ae], the IC50 was found to be 0.177 µM.

On to `COC1CCCN(Cc2ccc(-c3cccc4c(=O)cc(N5CCOCC5)oc34)c3sc4ccccc4c23)C1` (centres unmarked) [4af], for which the IC50 worked out at 0.232 µM.

Take `O=C(C1CC1)N1CCN(Cc2ccc(-c3cccc4c(=O)cc(N5CCOCC5)oc34)c3sc4ccccc4c23)CC1` [4ag]: the IC50 was 0.251 µM.

On to `CN(C)C1CCN(Cc2ccc(-c3cccc4c(=O)cc(N5CCOCC5)oc34)c3sc4ccccc4c23)C1` (centres unmarked) [4ah], for which the half-inhibitory concentration (IC50) was 0.00121 µM.

For the molecule `O=c1cc(N2CCOCC2)oc2c(-c3ccc(CN4CCOCC4)c4c3sc3ccccc34)cccc12` [4ai], the IC50 stood at 0.102 µM.

`C[C@H]1COCCN1Cc1ccc(-c2cccc3c(=O)cc(N4CCOCC4)oc23)c2sc3ccccc3c12` [4aj]: the IC50 amounted to 0.406 µM.

In the case of `C[C@@H]1COCCN1Cc1ccc(-c2cccc3c(=O)cc(N4CCOCC4)oc23)c2sc3ccccc3c12` [4ak], the IC50 worked out at 0.912 µM.

For `O=c1cc(N2CCOCC2)oc2c(-c3ccc(CN4CCOC(CO)C4)c4c3sc3ccccc34)cccc12` (centres unmarked) [4al], the IC50 came out at 0.0725 µM.

Turning to `COC1CCN(Cc2ccc(-c3cccc4c(=O)cc(N5CCOCC5)oc34)c3sc4ccccc4c23)CC1` [4am], the IC50 turned out to be 0.415 µM.

As for `CC1CC(C)CN(Cc2ccc(-c3cccc4c(=O)cc(N5CCOCC5)oc34)c3sc4ccccc4c23)C1` (centres unmarked) [4an], the IC50 was 1.52 µM.

`O=c1cc(N2CCOCC2)oc2c(-c3ccc(CN4CCC(C(F)(F)F)CC4)c4c3sc3ccccc34)cccc12` [4ao]: the IC50 was found to be 5.43 µM.

For `O=c1cc(N2CCOCC2)oc2c(-c3ccc(CN4CCCC(C(F)(F)F)C4)c4c3sc3ccccc34)cccc12` (centres unmarked) [4ap], the IC50 was determined as 2.14 µM.

Turning to `CCN1CCN(Cc2ccc(-c3cccc4c(=O)cc(N5CCOCC5)oc34)c3sc4ccccc4c23)CC1` [4aq], the IC50 was found to be 0.00559 µM.

For the molecule `N#CCNCc1ccc(-c2cccc3c(=O)cc(N4CCOCC4)oc23)c2sc3ccccc3c12` [4ar], the IC50 came to 0.0297 µM.

Turning to `O=c1cc(N2CCOCC2)oc2c(-c3ccc(CN4CCCO4)c4c3sc3ccccc34)cccc12` [4as], the IC50 came to 0.0689 µM.

With `COCC1CCCN1Cc1ccc(-c2cccc3c(=O)cc(N4CCOCC4)oc23)c2sc3ccccc3c12` (centres unmarked) [4at], the IC50 turned out to be 0.884 µM.

Consider `CN(C)C1CCCN(Cc2ccc(-c3cccc4c(=O)cc(N5CCOCC5)oc34)c3sc4ccccc4c23)C1` (centres unmarked) [4au], for which the IC50 came to 0.0198 µM.

Consider `CN1CCCC1CCNCc1ccc(-c2cccc3c(=O)cc(N4CCOCC4)oc23)c2sc3ccccc3c12` (centres unmarked) [4av], for which the IC50 was found to be 0.0486 µM.

For `O=c1cc(N2CCOCC2)oc2c(-c3ccc(CNCCc4ccccn4)c4c3sc3ccccc34)cccc12` [4aw], the IC50 was determined as 0.0696 µM.

For `O=c1cc(N2CCOCC2)oc2c(-c3ccc(CNCCCn4ccnc4)c4c3sc3ccccc34)cccc12` [4ax], the IC50 was determined as 0.0265 µM.

As to `CN(C)CC(C)(C)CNCc1ccc(-c2cccc3c(=O)cc(N4CCOCC4)oc23)c2sc3ccccc3c12` [4ay], the IC50 was found to be 0.122 µM.

Regarding `O=c1cc(N2CCOCC2)oc2c(-c3ccc(CN4CCCC(F)(F)C4)c4c3sc3ccccc34)cccc12` [4az], the IC50 was found to be 2.02 µM.

With `O=c1cc(N2CCOCC2)oc2c(-c3ccc(CNCc4ccccc4)c4c3sc3ccccc34)cccc12` [4b], the IC50 amounted to 0.248 µM.

On to `O=c1cc(N2CCOCC2)oc2c(-c3ccc(CNCCCN4CCCC4)c4c3sc3ccccc34)cccc12` [4ba], for which the 50% inhibitory concentration (IC50) was 0.0173 µM.

As for `CC(NCc1ccc(-c2cccc3c(=O)cc(N4CCOCC4)oc23)c2sc3ccccc3c12)c1nccs1` (centres unmarked) [4bb], the IC50 came to 0.777 µM.

On to `CN1CCCCC1CNCc1ccc(-c2cccc3c(=O)cc(N4CCOCC4)oc23)c2sc3ccccc3c12` (centres unmarked) [4bc], for which the IC50 came out at 0.0105 µM.

For the molecule `O=c1cc(N2CCOCC2)oc2c(-c3ccc(CNC4CCS(=O)(=O)C4)c4c3sc3ccccc34)cccc12` (centres unmarked) [4bd], the IC50 stood at 0.125 µM.

For the molecule `O=c1cc(N2CCOCC2)oc2c(-c3ccc(CNCc4cc[nH]n4)c4c3sc3ccccc34)cccc12` [4be], the IC50 was found to be 0.0917 µM.

Consider `COC[C@H]1CCCN1Cc1ccc(-c2cccc3c(=O)cc(N4CCOCC4)oc23)c2sc3ccccc3c12` [4bf], for which the IC50 is 0.717 µM.

`Cc1cc(NCc2ccc(-c3cccc4c(=O)cc(N5CCOCC5)oc34)c3sc4ccccc4c23)on1` [4bg]: the IC50 is 0.299 µM.

Take `O=c1cc(N2CCOCC2)oc2c(-c3ccc(CNCc4ccco4)c4c3sc3ccccc34)cccc12` [4bh]: the IC50 stood at 0.222 µM.

With `Cc1n[nH]c(NCc2ccc(-c3cccc4c(=O)cc(N5CCOCC5)oc34)c3sc4ccccc4c23)n1` [4bi], the IC50 amounted to 0.0929 µM.

Turning to `CC(CN(C)C)NCc1ccc(-c2cccc3c(=O)cc(N4CCOCC4)oc23)c2sc3ccccc3c12` (centres unmarked) [4bk], the IC50 turned out to be 0.032 µM.

In the case of `Cn1nccc1CNCc1ccc(-c2cccc3c(=O)cc(N4CCOCC4)oc23)c2sc3ccccc3c12` [4bl], the concentration for half-maximal inhibition (IC50) was determined as 0.0462 µM.

Turning to `N[C@@H]1CCCC[C@@H]1NCc1ccc(-c2cccc3c(=O)cc(N4CCOCC4)oc23)c2sc3ccccc3c12` [4bn], the IC50 was determined as 0.115 µM.

Consider `O=c1cc(N2CCOCC2)oc2c(-c3ccc(CN4CCCCO4)c4c3sc3ccccc34)cccc12` [4bo], for which the IC50 is 2.07 µM.

As to `O=c1cc(N2CCOCC2)oc2c(-c3ccc(CN4CC[C@@H](F)C4)c4c3sc3ccccc34)cccc12` [4bp], the IC50 came to 0.17 µM.

Turning to `O=c1cc(N2CCOCC2)oc2c(-c3ccc(CN4CCSC4)c4c3sc3ccccc34)cccc12` [4bq], the IC50 amounted to 0.433 µM.

Consider `O=c1cc(N2CCOCC2)oc2c(-c3ccc(CN4CCC[C@@H]4CO)c4c3sc3ccccc34)cccc12` [4bt], for which the IC50 is 0.174 µM.

As to `CN(C)[C@H]1CCN(Cc2ccc(-c3cccc4c(=O)cc(N5CCOCC5)oc34)c3sc4ccccc4c23)C1` [4bu], the IC50 was determined as 0.00132 µM.

As to `CN(C)[C@@H]1CCN(Cc2ccc(-c3cccc4c(=O)cc(N5CCOCC5)oc34)c3sc4ccccc4c23)C1` [4bv], the IC50 was found to be 0.00205 µM.

As for `O=c1cc(N2CCOCC2)oc2c(-c3ccc(CN4CC[C@H](F)C4)c4c3sc3ccccc34)cccc12` [4bw], the IC50 turned out to be 0.438 µM.

`O=c1cc(N2CCOCC2)oc2c(-c3ccc(CN4CCC[C@H]4CO)c4c3sc3ccccc34)cccc12` [4by]: the half-inhibitory concentration (IC50) amounted to 0.0986 µM.

Regarding `O=c1cc(N2CCOCC2)oc2c(-c3ccc(CN4CCSCC4)c4c3sc3ccccc34)cccc12` [4bz], the IC50 is 0.257 µM.

With `O=c1cc(N2CCOCC2)oc2c(-c3ccc(CNCCO)c4c3sc3ccccc34)cccc12` [4c], the 50% inhibitory concentration (IC50) was 0.0226 µM.

For the molecule `O=c1cc(N2CCOCC2)oc2c(-c3ccc(CN4CCC(F)(F)C4)c4c3sc3ccccc34)cccc12` [4ca], the IC50 turned out to be 1.01 µM.

For `CC1CN(Cc2ccc(-c3cccc4c(=O)cc(N5CCOCC5)oc34)c3sc4ccccc4c23)CCN1C` (centres unmarked) [4cb], the IC50 turned out to be 0.00374 µM.

`CN(Cc1ccc(-c2cccc3c(=O)cc(N4CCOCC4)oc23)c2sc3ccccc3c12)Cc1ccnn1C` [4cc]: the concentration for half-maximal inhibition (IC50) worked out at 0.321 µM.

For the molecule `CN(Cc1ccc(-c2cccc3c(=O)cc(N4CCOCC4)oc23)c2sc3ccccc3c12)Cc1cncn1C` [4cd], the IC50 amounted to 0.0684 µM.

On to `Cn1cccc1CNCc1ccc(-c2cccc3c(=O)cc(N4CCOCC4)oc23)c2sc3ccccc3c12` [4ce], for which the IC50 is 0.291 µM.

For `O=c1cc(N2CCOCC2)oc2c(-c3ccc(CNC4=NCCS4)c4c3sc3ccccc34)cccc12` [4cf], the IC50 is 0.174 µM.

For `O=c1cc(N2CCOCC2)oc2c(-c3ccc(CNCc4ccncc4)c4c3sc3ccccc34)cccc12` [4cg], the IC50 was determined as 0.139 µM.

Take `O=c1cc(N2CCOCC2)oc2c(-c3ccc(CNCc4cccnc4)c4c3sc3ccccc34)cccc12` [4ch]: the IC50 amounted to 0.0985 µM.

For the molecule `O=c1cc(N2CCOCC2)oc2c(-c3ccc(CNCc4ccccn4)c4c3sc3ccccc34)cccc12` [4ci], the half-inhibitory concentration (IC50) is 0.177 µM.

For the molecule `O=c1cc(N2CCOCC2)oc2c(-c3ccc(CNCc4nccs4)c4c3sc3ccccc34)cccc12` [4cj], the IC50 came out at 0.193 µM.

Take `CN1CCCC(NCc2ccc(-c3cccc4c(=O)cc(N5CCOCC5)oc34)c3sc4ccccc4c23)C1` (centres unmarked) [4ck]: the IC50 is 0.0161 µM.

In the case of `CN1CCC(NCc2ccc(-c3cccc4c(=O)cc(N5CCOCC5)oc34)c3sc4ccccc4c23)CC1` [4cl], the IC50 came out at 0.0472 µM.

With `N#Cc1cccn1NCc1ccc(-c2cccc3c(=O)cc(N4CCOCC4)oc23)c2sc3ccccc3c12` [4cm], the IC50 came out at 0.956 µM.

Turning to `CCN1CCCC1CNCc1ccc(-c2cccc3c(=O)cc(N4CCOCC4)oc23)c2sc3ccccc3c12` (centres unmarked) [4cn], the IC50 amounted to 0.0573 µM.

Consider `O=c1cc(N2CCOCC2)oc2c(-c3ccc(CNCCN4CCCCC4)c4c3sc3ccccc34)cccc12` [4co], for which the IC50 was determined as 0.0625 µM.
